# Measured values from PubChem BioAssay (NCI).
#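 Briefly, cells in 96-well plates were exposed to five compound concentrations for 48 h, and endpoints were estimated by linear interpolation. GI50 marks 50% less growth. TGI marks complete inhibition of growth.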
# Tests used:
# Experiment in all cases: inhibition of tumour cell growth, NCI panel, 48 h
# [1] = tested on: OVCAR-5 ovarian
# [2] = tested on: CCRF-CEM leukemia
# [3] = tested on: TK-10 renal
# [4] = tested on: SR leukemia
# [5] = tested on: NCI/ADR-RES ovarian
# [6] = tested on: SF-539 CNS
# [7] = tested on: DU-145 prostate
# [8] = tested on: ACHN renal
# [9] = tested on: SNB-75 CNS
# [10] = tested on: PC-3 prostate
# [11] = tested on: COLO 205 colon
# [12] = tested on: HCC-2998 colon
# [13] = tested on: BT-549 breast
# [14] = tested on: OVCAR-4 ovarian
# [15] = tested on: SK-MEL-28 melanoma
# [16] = tested on: SK-MEL-5 melanoma
# [17] = tested on: UO-31 renal
# [18] = tested on: HS 578T breast
# [19] = tested on: MALME-3M melanoma
# [20] = tested on: SN12C renal
# [21] = tested on: RPMI-8226 leukemia
# [22] = tested on: NCI-H522 lung
# [23] = tested on: 786-0 renal
# [24] = tested on: EKVX NSCLC
# [25] = tested on: NCI-H23 lung
# [26] = tested on: NCI-H226 lung
# [27] = tested on: SK-MEL-2 melanoma
# [28] = tested on: SW-620 colon
# [29] = tested on: RXF 393 renal
# [30] = tested on: NCI-H460 lung
# [31] = tested on: M14 melanoma
# [32] = tested on: MDA-MB-231 breast
# [33] = tested on: OVCAR-8 ovarian
# [34] = tested on: HCT-116 colon
# [35] = tested on: KM12 colon
# [36] = tested on: LOX IMVI melanoma
# [37] = tested on: SF-268 CNS
# [38] = tested on: HL-60(TB) leukemia
# [39] = tested on: UACC-62 melanoma
# [40] = tested on: A549 NSCLC
# [41] = tested on: A498 renal
# [42] = tested on: SNB-19 CNS
# [43] = tested on: IGROV1 ovarian
# [44] = tested on: CAKI-1 renal
# [45] = tested on: HCT-15 colon
# [46] = tested on: MDA-MB-435
# [47] = tested on: OVCAR-3 ovarian
# [48] = tested on: MCF7 breast
# [49] = tested on: K-562 leukemia
# [50] = tested on: MOLT-4 leukemia
# [51] = tested on: SK-OV-3 ovarian
# [52] = tested on: U251 CNS
# [53] = tested on: SF-295 CNS
# [54] = tested on: HT29 colon
# [55] = tested on: UACC-257 melanoma
# [56] = tested on: HOP-62 NSCLC
compound,measurement,setting,value
O=C(c1ccco1)c1nc2ccc(Cl)cc2[n+]([O-])c1C(F)(F)F,GI50,[1],> 100 µM
same,TGI,[1],> 100 µM
same,GI50,[2],39.4 µM
same,TGI,[2],> 100 µM
same,GI50,[3],62.7 µM
same,TGI,[3],> 100 µM
same,GI50,[4],66.3 µM
same,TGI,[4],> 100 µM
same,GI50,[5],> 100 µM
same,TGI,[5],> 100 µM
same,GI50,[6],> 100 µM
same,TGI,[6],> 100 µM
same,GI50,[7],> 100 µM
same,TGI,[7],> 100 µM
same,GI50,[8],> 100 µM
same,TGI,[8],> 100 µM
same,GI50,[9],52.8 µM
same,TGI,[9],> 100 µM
same,GI50,[10],37.1 µM
same,TGI,[10],> 100 µM
same,GI50,[11],> 100 µM
same,TGI,[11],> 100 µM
same,GI50,[12],88.4 µM
same,TGI,[12],> 100 µM
same,GI50,[13],> 100 µM
same,TGI,[13],> 100 µM
same,GI50,[14],> 100 µM
same,TGI,[14],> 100 µM
same,GI50,[15],> 100 µM
same,TGI,[15],> 100 µM
same,GI50,[16],90.3 µM
same,TGI,[16],> 100 µM
same,GI50,[17],> 100 µM
same,TGI,[17],> 100 µM
same,GI50,[18],> 100 µM
same,TGI,[18],> 100 µM
same,GI50,[19],> 100 µM
same,TGI,[19],> 100 µM
same,GI50,[20],> 100 µM
same,TGI,[20],> 100 µM
same,GI50,[21],31.1 µM
same,TGI,[21],> 100 µM
same,GI50,[22],> 100 µM
same,TGI,[22],> 100 µM
same,GI50,[23],> 100 µM
same,TGI,[23],> 100 µM
same,GI50,[24],96.2 µM
same,TGI,[24],> 100 µM
same,GI50,[25],> 100 µM
same,TGI,[25],> 100 µM
same,GI50,[26],> 100 µM
same,TGI,[26],> 100 µM
same,GI50,[27],> 100 µM
same,TGI,[27],> 100 µM
same,GI50,[28],> 100 µM
same,TGI,[28],> 100 µM
same,GI50,[29],27.4 µM
same,TGI,[29],62 µM
same,GI50,[30],91.4 µM
same,TGI,[30],> 100 µM
same,GI50,[31],> 100 µM
same,TGI,[31],> 100 µM
same,GI50,[32],59.1 µM
same,TGI,[32],> 100 µM
same,GI50,[33],64.9 µM
same,TGI,[33],> 100 µM
same,GI50,[34],> 100 µM
same,TGI,[34],> 100 µM
same,GI50,[35],> 100 µM
same,TGI,[35],> 100 µM
same,GI50,[36],> 100 µM
same,TGI,[36],> 100 µM
same,GI50,[37],50.1 µM
same,TGI,[37],> 100 µM
same,GI50,[38],> 100 µM
same,TGI,[38],> 100 µM
same,GI50,[39],> 100 µM
same,TGI,[39],> 100 µM
same,GI50,[40],> 100 µM
same,TGI,[40],> 100 µM
same,GI50,[41],> 100 µM
same,TGI,[41],> 100 µM
same,GI50,[42],72.6 µM
same,TGI,[42],> 100 µM
same,GI50,[43],> 100 µM
same,TGI,[43],> 100 µM
same,GI50,[44],95.6 µM
same,TGI,[44],> 100 µM
same,GI50,[45],> 100 µM
same,TGI,[45],> 100 µM
same,GI50,[46],> 100 µM
same,TGI,[46],> 100 µM
same,GI50,[47],> 100 µM
same,TGI,[47],> 100 µM
same,GI50,[48],30.4 µM
same,TGI,[48],> 100 µM
same,GI50,[49],> 100 µM
same,TGI,[49],> 100 µM
same,GI50,[50],> 100 µM
same,TGI,[50],> 100 µM
same,GI50,[51],> 100 µM
same,TGI,[51],> 100 µM
same,GI50,[52],69.8 µM
same,TGI,[52],> 100 µM
same,GI50,[53],> 100 µM
same,TGI,[53],> 100 µM
same,GI50,[54],> 100 µM
same,TGI,[54],> 100 µM
same,GI50,[55],> 100 µM
same,TGI,[55],> 100 µM
same,GI50,[56],91.3 µM
same,TGI,[56],> 100 µM
